Where two headings read alike, the source gives them in different places.
Legend:
[1] = biological target: GSK3b (GST-full length GSK3b) (Homo sapiens (Human), UniProt P49841); test: GSK3b TR-FRET kinase assay; assay type: biochemical
Outline: (§1)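 Compound preincubated 30 min, then 1 nM GST-full-length GSK3α or GSK3b run 100 min at ambient temperature with 200 nM biotinylated, S645-prephosphorylated glycogen synthase 631-650 peptide in Tris pH 7.5, MgCl2, DTT, BSA, 1% DMSO. ATP 4 μM (α) or 2 μM (β), or 1 mM. EDTA-quenched; Tb-anti-pSer641/streptavidin-d2 TR-FRET 665/615 ratio gave IC50.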

[2] = biological target: GSK3α (GST-full length GSK3α) (Homo sapiens (Human), UniProt P49840); test: GSK3α TR-FRET kinase assay; assay type: biochemical
Chain of GSK3α (GST-full length GSK3α) (P49840 whole entry): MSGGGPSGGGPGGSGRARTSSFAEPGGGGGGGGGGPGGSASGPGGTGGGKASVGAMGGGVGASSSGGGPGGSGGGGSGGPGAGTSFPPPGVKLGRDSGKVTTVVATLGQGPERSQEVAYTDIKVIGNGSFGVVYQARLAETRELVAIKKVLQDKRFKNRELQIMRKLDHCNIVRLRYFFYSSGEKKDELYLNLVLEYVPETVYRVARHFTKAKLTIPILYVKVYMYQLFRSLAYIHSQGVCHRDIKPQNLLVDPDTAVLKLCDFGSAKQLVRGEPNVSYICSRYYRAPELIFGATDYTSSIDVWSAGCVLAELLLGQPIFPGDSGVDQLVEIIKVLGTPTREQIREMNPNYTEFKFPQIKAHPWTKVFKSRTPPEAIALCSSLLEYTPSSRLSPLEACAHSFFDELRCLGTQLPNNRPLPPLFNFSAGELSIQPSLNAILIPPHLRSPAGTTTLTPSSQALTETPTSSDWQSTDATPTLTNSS
Outline: as §1

[3] = 1 nM GSK3b, 2 μM ATP, 30 minute preincubation, Table 16, read-out: GSK3-B TR-FRET BIOCHEMICAL (TR-FRET), IC50
[4] = 1 nM GSK3α, 4 μM ATP, 30 minute preincubation, Table 16, read-out: GSK3-A TR-FRET BIOCHEMICAL (TR-FRET), IC50
[5] = 1 nM GSK3b, 2 μM ATP, 30 minute preincubation, Table 16, read-out: GSK3-B TR-FRET BIOCHEMICAL (TR-FRET)
[6] = 1 nM GSK3α, 4 μM ATP, 30 minute preincubation, Table 16, read-out: GSK3-A TR-FRET BIOCHEMICAL (TR-FRET)
[7] = read-out: GSK3-B (TR-FRET 1 mM ATP), GMean, IC50, 1 mM ATP, geometric mean
[8] = read-out: GSK3-A (TR-FRET 1 mM ATP), GMean, IC50, 1 mM ATP, geometric mean
[9] = 1 nM GSK3b, 2 μM ATP, 30 minute preincubation, read-out: GSK3-B TR-FRET BIOCHEMICAL (TR-FRET), IC50
[10] = 1 nM GSK3α, 4 μM ATP, 30 minute preincubation, read-out: GSK3-A TR-FRET BIOCHEMICAL (TR-FRET), IC50
[11] = GSK3-A (TR-FRET 1 mM ATP), GMean, IC50, 1 mM ATP, geometric mean
[12] = GSK3-B (TR-FRET 1 mM ATP), GMean, IC50, 1 mM ATP, geometric mean

Chain of GSK3b (GST-full length GSK3b) (P49841 whole entry): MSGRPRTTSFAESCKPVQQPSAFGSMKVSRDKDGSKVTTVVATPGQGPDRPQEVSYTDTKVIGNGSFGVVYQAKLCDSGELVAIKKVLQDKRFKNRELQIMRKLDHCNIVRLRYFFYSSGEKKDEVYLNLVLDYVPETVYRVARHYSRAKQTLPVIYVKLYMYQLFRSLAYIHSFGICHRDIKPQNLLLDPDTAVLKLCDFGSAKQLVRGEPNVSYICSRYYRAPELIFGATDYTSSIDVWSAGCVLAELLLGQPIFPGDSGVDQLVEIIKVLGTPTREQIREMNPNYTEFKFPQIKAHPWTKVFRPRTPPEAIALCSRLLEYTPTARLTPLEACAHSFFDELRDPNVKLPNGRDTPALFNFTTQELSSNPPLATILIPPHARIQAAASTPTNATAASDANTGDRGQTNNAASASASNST

Structure (SMILES) | IC50 [1, 5] [nM] | IC50 [2, 6] [nM] | other results
CCC1(c2cccc(-c3ccnc(C)c3)c2)C2=C(CC(C)CC2=O)Nc2n[nH]cc21 (stereo not drawn) [Compound 932638] | – | – | IC50 [1, 3]: > 5000 nM; IC50 [2, 4]: > 5000 nM
CC1(C)CC(=O)C2=C(C1)Nc1n[nH]cc1[C@@]21CCCN(S(=O)(=O)C2CC2)CC1 [Compound 932639] | 100 to 1000 | ≤ 100 | –
CCC1(c2cccc(N(C)c3ccnc(OC)c3)c2)C2=C(CC(C)(C)CC2=O)Nc2n[nH]cc21 (stereo not drawn) [Compound 932642] | – | – | IC50 [1, 3]: 100 to 1000 nM; IC50 [2, 4]: ≤ 100 nM
CCC1(c2cccc(N3CCOc4ncccc43)c2)C2=C(CC(C)(C)CC2=O)Nc2n[nH]cc21 (stereo not drawn) [Compound 932643] | – | – | IC50 [1, 3]: 1000 to 5000 nM; IC50 [2, 4]: 100 to 1000 nM
CCC1(c2cccc(N(C)c3ccnc(C)c3)c2)C2=C(CC(C)(C)CC2=O)Nc2n[nH]cc21 (stereo not drawn) [Compound 932645] | – | – | IC50 [1, 3]: 1000 to 5000 nM; IC50 [2, 4]: 100 to 1000 nM
CC(C)N1CC2(C1)C1=C(CC(C)(C)CC1=O)Nc1n[nH]cc12 [Compound 932650] | – | – | IC50 [1, 3]: > 5000 nM; IC50 [2, 4]: > 5000 nM
CC1(C)CC(=O)C2=C(C1)Nc1n[nH]cc1C21CN(C2CCOCC2)C1 [Compound 932651] | – | – | IC50 [1, 3]: > 5000 nM; IC50 [2, 4]: > 5000 nM
Cn1ccc(CN2CC3(C2)C2=C(CC(C)(C)CC2=O)Nc2n[nH]cc23)n1 [Compound 932652] | – | – | IC50 [1, 3]: > 5000 nM; IC50 [2, 4]: > 5000 nM
Cn1nccc1CN1CC2(C1)C1=C(CC(C)(C)CC1=O)Nc1n[nH]cc12 [Compound 932653] | – | – | IC50 [1, 3]: > 5000 nM; IC50 [2, 4]: 1000 to 5000 nM
CC1(C)CC(=O)C2=C(C1)Nc1n[nH]cc1C21CN(Cc2cnc3ccccn23)C1 [Compound 932654] | – | – | IC50 [1, 3]: > 5000 nM; IC50 [2, 4]: > 5000 nM
CC1(C)CC(=O)C2=C(C1)Nc1n[nH]cc1[C@]21CCCN(S(=O)(=O)C2CC2)CC1 [Compound 932659] | 100 to 1000 | ≤ 100 | –
Cn1ccc(S(=O)(=O)N2CCC[C@]3(CC2)C2=C(CC(C)(C)CC2=O)Nc2n[nH]cc23)n1 [Compound 932660] | 100 to 1000 | ≤ 100 | –
CC[C@]1(c2cccc(N(C)c3cccc(OC)n3)c2)C2=C(CC(C)(C)CC2=O)Nc2n[nH]cc21 [Compound 932666] | 100 to 1000 | ≤ 100 | –
COC(=O)C1(c2ccccc2)CC2(C1)C1=C(CC(C)(C)CC1=O)Nc1n[nH]cc12 (stereo not drawn) [Compound 942344] | 100 to 1000 | ≤ 100 | –
CCC1(c2cccc(-c3cc(C)nn3C)c2)C2=C(CC(C)(C)NC2=O)Nc2[nH]ncc21 (stereo not drawn) [Compound 943371] | – | – | IC50 [1, 9]: 1000 to 5000 nM; IC50 [2, 10]: ≤ 100 nM
CC1(C)CC(=O)C2=C(C1)Nc1n[nH]cc1[C@]21CCN(S(=O)(=O)c2ccccc2F)C1 [Compound 943487] | – | – | IC50 [1, 9]: ≤ 100 nM; IC50 [1, 12]: 100 to 1000 nM; IC50 [2, 10]: ≤ 100 nM; IC50 [2, 11]: ≤ 100 nM
CCC1(c2cccc(-c3cnnc(C)c3)c2)C2=C(CC(C)(C)NC2=O)Nc2n[nH]cc21 (stereo not drawn) [Compound 943496] | – | – | IC50 [1, 9]: 1000 to 5000 nM; IC50 [2, 10]: ≤ 100 nM
CC[C@]1(c2cccc(-c3cc(C)ncc3C)c2)C2=C(CC(C)(C)CC2=O)Nc2n[nH]cc21 [Compound 943515] | > 5000 | 1000 to 5000 | –
CCC1(c2cccc(-c3ccnc(C)c3C)c2)C2=C(CC(C)(C)CC2=O)Nc2n[nH]cc21 (stereo not drawn) [Compound 943517] | > 5000 | 100 to 1000 | –
CC[C@]1(c2cccc(-c3ccncc3F)c2)C2=C(CC(C)(C)CC2=O)Nc2n[nH]cc21 [Compound 943519] | 1000 to 5000 | 100 to 1000 | –
CCC1(c2cccc(-c3cnc(C)n3C)c2)C2=C(CC(C)(C)CC2=O)Nc2n[nH]cc21 (stereo not drawn) [Compound 943531] | 100 to 1000 | ≤ 100 | IC50 [1, 7]: > 5000 nM; IC50 [2, 8]: 100 to 1000 nM
CCC1(c2cccc(-c3ncnn3C)c2)C2=C(CC(C)(C)CC2=O)Nc2n[nH]cc21 (stereo not drawn) [Compound 943532] | 100 to 1000 | ≤ 100 | –
CCC1(c2cccc(N(C)c3cc(C)ccn3)c2)C2=C(CC(C)(C)CC2=O)Nc2n[nH]cc21 (stereo not drawn) [Compound 943537] | 100 to 1000 | ≤ 100 | –
CCC1(c2cccc(-c3ccncc3CO)c2)C2=C(CC(C)(C)CC2=O)Nc2n[nH]cc21 (stereo not drawn) [Compound 943539] | ≤ 100 | ≤ 100 | –
CCC1(c2cccc(-c3ccnc(CO)c3)c2)C2=C(CC(C)(C)CC2=O)Nc2n[nH]cc21 (stereo not drawn) [Compound 943540] | 100 to 1000 | ≤ 100 | –
CCC1(c2cccc(S(=O)(=O)C3CCCCC3)c2)C2=C(CC(C)(C)CC2=O)Nc2n[nH]cc21 (stereo not drawn) [Compound 943541] | ≤ 100 | ≤ 100 | IC50 [1, 7]: 1000 to 5000 nM; IC50 [2, 8]: 100 to 1000 nM
CC1(C)CC(=O)C2=C(C1)Nc1n[nH]cc1C21CN(S(=O)(=O)Cc2ccccc2)C1 [Compound 943543] | ≤ 100 | ≤ 100 | –
COCCN1CC2(C1)C1=C(CC(C)(C)CC1=O)Nc1n[nH]cc12 [Compound 943544] | – | – | IC50 [1, 3]: > 5000 nM; IC50 [2, 4]: > 5000 nM
CC1(C)CC(=O)C2=C(C1)Nc1n[nH]cc1C21CN(CC2CCOCC2)C1 [Compound 943545] | – | – | IC50 [1, 3]: > 5000 nM; IC50 [2, 4]: > 5000 nM

The next lines start with results.

IC50 [1, 5] [nM] | IC50 [2, 6] [nM] | Structure (SMILES) | other results
≤ 100 | ≤ 100 | Cn1nccc1S(=O)(=O)N1CC2(C1)C1=C(CC(C)(C)CC1=O)Nc1n[nH]cc12 [Compound 932648] | –
≤ 100 | ≤ 100 | Cn1nccc1S(=O)(=O)N1CCC2(CC1)C1=C(CC(C)(C)CC1=O)Nc1n[nH]cc12 [Compound 932649] | –
≤ 100 | ≤ 100 | CCC1(c2cccc(N3CCOc4ncccc43)c2)C2=C(CC(C)(C)CC2=O)Nc2n[nH]cc21 (stereo not drawn) [Compound 932663] | –
≤ 100 | ≤ 100 | COC(=O)C1(c2ccccc2)CC2(C1)C1=C(CC(C)(C)CC1=O)Nc1n[nH]cc12 (stereo not drawn) [Compound 942366] | –
≤ 100 | ≤ 100 | CC1(C)CC(=O)C2=C(C1)Nc1n[nH]cc1[C@]21CCN(S(C)(=O)=O)C1 [Compound 942432] | –
≤ 100 | ≤ 100 | CC1(C)CC(=O)C2=C(C1)Nc1n[nH]cc1[C@@]21CCN(S(C)(=O)=O)C1 [Compound 942462] | –
≤ 100 | ≤ 100 | CCC1(c2cccc(N(C)c3nccc(C)n3)c2)C2=C(CC(C)(C)CC2=O)Nc2n[nH]cc21 (stereo not drawn) [Compound 942642] | IC50 [1, 7]: 1000 to 5000 nM; IC50 [2, 8]: ≤ 100 nM
≤ 100 | ≤ 100 | CC1(C)CC(=O)C2=C(C1)Nc1n[nH]cc1[C@]21CCN(S(=O)(=O)CC2CC2)C1 [Compound 943481] | IC50 [1, 7]: 100 to 1000 nM; IC50 [2, 11]: 100 to 1000 nM
≤ 100 | ≤ 100 | CC1(C)CC(=O)C2=C(C1)Nc1n[nH]cc1[C@]21CCN(S(=O)(=O)C2CCCC2)C1 [Compound 943482] | IC50 [1, 12]: 100 to 1000 nM; IC50 [2, 11]: 100 to 1000 nM
≤ 100 | ≤ 100 | Cn1cc(S(=O)(=O)N2CC[C@]3(C2)C2=C(CC(C)(C)CC2=O)Nc2n[nH]cc23)cn1 [Compound 943483] | –
≤ 100 | ≤ 100 | Cn1ccc(S(=O)(=O)N2CC[C@]3(C2)C2=C(CC(C)(C)CC2=O)Nc2n[nH]cc23)n1 [Compound 943484] | IC50 [1, 12]: 1000 to 5000 nM; IC50 [2, 11]: 100 to 1000 nM
≤ 100 | ≤ 100 | CC1(C)CC(=O)C2=C(C1)Nc1n[nH]cc1[C@]21CCN(S(=O)(=O)c2ccccc2)C1 [Compound 943485] | IC50 [1, 12]: 1000 to 5000 nM; IC50 [2, 11]: 100 to 1000 nM
≤ 100 | ≤ 100 | COc1cccc(S(=O)(=O)N2CC[C@]3(C2)C2=C(CC(C)(C)CC2=O)Nc2n[nH]cc23)c1 [Compound 943486] | –
≤ 100 | ≤ 100 | CC1(C)CC(=O)C2=C(C1)Nc1n[nH]cc1[C@]21CCN(S(=O)(=O)c2cccc(F)c2)C1 [Compound 943488] | –
≤ 100 | ≤ 100 | Cc1cccc(S(=O)(=O)N2CC[C@]3(C2)C2=C(CC(C)(C)CC2=O)Nc2n[nH]cc23)c1 [Compound 943489] | –
≤ 100 | ≤ 100 | CCC1(c2cccc(N(C)c3ccnnc3)c2)C2=C(CC(C)(C)CC2=O)Nc2n[nH]cc21 (stereo not drawn) [Compound 943492] | –
≤ 100 | ≤ 100 | CCC1(c2cccc(-c3ccnc(C)c3C)c2)C2=C(CC(C)(C)CC2=O)Nc2n[nH]cc21 (stereo not drawn) [Compound 943516] | IC50 [1, 7]: 1000 to 5000 nM; IC50 [2, 8]: ≤ 100 nM
≤ 100 | ≤ 100 | CCC1(c2cccc(-c3ccncc3F)c2)C2=C(CC(C)(C)CC2=O)Nc2n[nH]cc21 (stereo not drawn) [Compound 943518] | IC50 [1, 7]: 100 to 1000 nM; IC50 [2, 8]: ≤ 100 nM
≤ 100 | ≤ 100 | CCC1(c2cccc(-c3cncn3C)c2)C2=C(CC(C)(C)CC2=O)Nc2n[nH]cc21 (stereo not drawn) [Compound 943533] | –
≤ 100 | ≤ 100 | CCC1(c2cccc(-c3ccnc4c3CCC4)c2)C2=C(CC(C)(C)CC2=O)Nc2n[nH]cc21 (stereo not drawn) [Compound 943534] | –
≤ 100 | ≤ 100 | CCC1(c2cccc(-c3cnc4n3CCCC4)c2)C2=C(CC(C)(C)CC2=O)Nc2n[nH]cc21 (stereo not drawn) [Compound 943535] | –

Reference: patent US20250313563A1, “GLYCOGEN SYNTHASE KINASE 3 INHIBITORS AND USES THEREOF” (The Broad Institute, Inc., priority 2022, published 2025)
